Test results from patent US20230059009A1, “INHIBITORS OF LIN28 AND METHODS OF USE THEREOF” (The Regents of the University of California, priority 2019, published 2023).

How the values were obtained:
MCF7 = experiment: Cell viability, MTT assay, MCF7; format: cell-based; conditions: Homo sapiens, MCF7 (Breast)
Method: (§1) To measure cell viability, cell titer glow (CTG, Promega CellTiter-Glo 2.0 Assay) and MTT assays (SigmaAldrich, Cell Proliferation Kit I) were performed. Briefly, cells were serum starved overnight prior to seeding in 96-well plates. Following 24 h incubation, cells were treated with increasing concentrations of JGJ compounds for 96 hr. At assay read-out, CellTiter-Glo reagent was added and luminescence was measured after 10-minutes incubation at room temperature. For the MTT assay, MTT labeling reagent was added and incubated for 4 h. Subsequently, medium was removed and 50 μL DMSO was added to solubilize the crystals, and absorbance was measured at 570 nm. Cell viability was calculated as (Sample-Background)/(Control-Background). Current standard of care drugs, Enzalutamide, Palbociclib and Cetuximab were used as comparative controls.

DU145 = experiment: Cell viability, MTT assay, DU145; format: cell-based; conditions: Homo sapiens, DU-145, DU145 (Prostate)
Method: as §1

MDA-MB231 [1] = experiment: Cell viability, MTT assay, MDA-MB231; format: cell-based; conditions: Homo sapiens, MDA-MB-231, MDA-MB231 (Breast)
Method: as §1

H1975 = experiment: Cell viability, MTT assay, H1975; format: cell-based; conditions: Homo sapiens, NCI-H1975, H1975 (Lung)
Method: as §1, with “(Sample-Background)/(Control-Background).” for “(Sample-Background)/(Control-Background). Current standard of care drugs, Enzalutamide, Palbociclib and Cetuximab were used as comparative controls.”

mature let-7 miRNAs = experiment: Dual luciferase reporter assay of mature let-7 miRNAs in HepG2 cells; format: cell-based; conditions: 3-10 μM, compared with LN1632
Method: (§2) To test the structure-activity relationship, 39 LN1632-related analogs (JGJ001-39) were synthesized and their potency and specificity to inhibit LIN28B-RNA binding activity and upregulate mature let-7 miRNA levels was measured. […] The dual luciferase reporter assay was performed as previously described (89).

H1568 = experiment: Cell viability, MTT assay, H1568; format: cell-based; conditions: NCI-H1568, H1568 (Lung)
Method: as §1

MDA-MB231 [2] = experiment: Cell viability, CTG, MDA-MB231; format: cell-based; conditions: Homo sapiens, MDA-MB-231, MDA-MB231 (Breast)
Method: as §1

SW948 = experiment: Cell viability, CTG, SW948; format: cell-based; conditions: Homo sapiens, SW948 (Colon)
Method: as §1

22RV1 [3] = experiment: Cell viability, MTT assay, 22RV1; format: cell-based; conditions: Homo sapiens, 22RV1 (Prostate), 96 hr
Method: as §1, with “(Sample-Background)/(Control-Background).” for “(Sample-Background)/(Control-Background). Current standard of care drugs, Enzalutamide, Palbociclib and Cetuximab were used as comparative controls.”

22RV1 [4] = experiment: Cell viability, CellTiter-Glo (CTG), 22RV1; format: cell-based; conditions: Homo sapiens, 22RV1 (Prostate), 96 hr
Method: as §1, with “(Sample-Background)/(Control-Background).” for “(Sample-Background)/(Control-Background). Current standard of care drugs, Enzalutamide, Palbociclib and Cetuximab were used as comparative controls.”

22Rv1 cells = experiment: 22Rv1 cell counting; format: cell-based; conditions: 2 μM JGJ023 vs 42 μM Enzalutamide, day +5, +7, +9
Method: (§3) To test whether LN1632 and novel analogs thereof affect cancer cell growth, cell viability and cell counting assays in TNBC (FIG. 14B-D), castration resistant prostate cancer cells (CRPC, FIG. 15A-C) and colorectal cancer cells (CRC, FIG. 15A-C) were performed.

[5] = target: T1, LIN28B/pre-let-7a-2 binding (Homo sapiens, UniProt Q6ZN17); experiment: FRET assay, EGFP-tagged LIN28B and BHQ-1 labelled pre-let-7a-2; conditions: doses 1.25 uM-20 uM; compared with LN1632
T1 construct: made in house; host or cells: stably transduced HEK cells; used as diluted protein lysate, not purified
T1 sequence (Q6ZN17 1-250): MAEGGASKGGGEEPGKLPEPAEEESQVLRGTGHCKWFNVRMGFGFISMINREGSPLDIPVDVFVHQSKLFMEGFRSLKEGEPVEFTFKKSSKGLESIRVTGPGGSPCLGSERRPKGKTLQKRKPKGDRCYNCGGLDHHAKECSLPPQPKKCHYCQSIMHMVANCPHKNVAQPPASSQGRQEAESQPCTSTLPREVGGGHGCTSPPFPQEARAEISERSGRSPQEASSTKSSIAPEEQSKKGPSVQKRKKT
Method: As described herein, compounds of formula (I) and (II) show Lin28/let-7 inhibitory activity in FRET assays in vitro and in LSCs and LSC-like Kasumi-1 cells. FRET assay was performed as previously described (51).
In order to improve binding and inhibitory capacity of a compound to LIN28b, we predicted the binding mode of LN1632 to LIN28B. […] With this model in hand, we synthesized novel compounds with improved binding capacity to Lin28b (JGJ002-JGJ008, FIG. 8). Compounds were screened using a previously described FRET-assay with an EGFP-tagged LIN28B as donor and a BHQ-1 quencher labelled pre-let-7a-2 (pre-let-7a-2-BHQ1) as acceptor (51). Briefly, recombinant LIN28B-EGFP was harvested from stably transduced HEK cells and diluted with binding buffer (300 mM NaCl, 25 mM HEPES pH 7.2, 10 μM ZnCl2, 1% Odyssey Blocking Buffer, 0.05% Tween 20, 0.5 mM TCEP) in order to adjust ideal FRET-quenching signal intensity. Protein lysate and compounds (JGJ001-JGJ008) were pre-incubated in doses ranging from 1.25 uM-20 uM for 20 min in 100 uL diluted protein lysate. Subsequently pre-let-7a-2-BHQ1 was added to the mixture (at 6.25 nM) and EGFP-LIN28B donor emission was measured using a Tecan Spark Plate Reader ([…], excitation at 488 nm, emission read-out at […], 30 flashes/s). […] Increased endogenous let-7 miRNA levels can target a panoply of LCS and cancer stem cell hallmark genes thus inhibiting tumor growth.
as §2

HCT-116 = experiment: Cell viability, CTG, HCT-116; format: cell-based; conditions: Homo sapiens, HCT-116 (Colon)
Method: as §1

H460 = experiment: Cell viability, MTT assay, H460; format: cell-based; conditions: Homo sapiens, NCI-H460, H460 (Lung)
Method: as §1

H23 = experiment: Cell viability, MTT assay, H23; format: cell-based; conditions: Homo sapiens, NCI-H23, H23 (Lung)
Method: as §1

BT-549 = experiment: Cell viability, MTT assay, BT-549; format: cell-based; conditions: Homo sapiens, BT-549 (Breast)
Method: as §1

SW620 [6] = experiment: Cell viability, CTG, SW620; format: cell-based; conditions: Homo sapiens, SW-620, SW620 (Colon)
Method: as §1

LNCaP = experiment: Cell viability, MTT assay, LNCaP; format: cell-based; conditions: Homo sapiens, LNCaP (Prostate)
Method: as §1, with “(Sample-Background)/(Control-Background).” for “(Sample-Background)/(Control-Background). Current standard of care drugs, Enzalutamide, Palbociclib and Cetuximab were used as comparative controls.”

A549 = experiment: Cell viability, MTT assay, A549; format: cell-based; conditions: Homo sapiens, A549 (Lung)
Method: as §1, with “(Sample-Background)/(Control-Background).” for “(Sample-Background)/(Control-Background). Current standard of care drugs, Enzalutamide, Palbociclib and Cetuximab were used as comparative controls.”

SW480 [7] = experiment: Cell viability, MTT assay, SW480; format: cell-based; conditions: Homo sapiens, SW480 (Colon)
Method: as §1

MYC-driven cancers = experiment: Cell viability and cell counting assays in cancer cells; format: cell-based; conditions: TNBC, CRPC, lung and colorectal adenocarcinoma cells
Method: as §3, §1

SW480 [8] = experiment: Cell viability, CTG, SW480; format: cell-based; conditions: Homo sapiens, SW480 (Colon)
Method: as §1, with “(Sample-Background)/(Control-Background).” for “(Sample-Background)/(Control-Background). Current standard of care drugs, Enzalutamide, Palbociclib and Cetuximab were used as comparative controls.”

SW620 [9] = experiment: Cell viability, MTT assay, SW620; format: cell-based; conditions: Homo sapiens, SW-620, SW620 (Colon)
Method: as §1

Molecule `CC(=O)Nc1cccc(-c2ccc3ncc(-c4ccccc4)n3n2)c1` [JGJ023, N-(3-(3-Phenylimidazo[1,2-b]pyridazin-6-yl)phenyl)acetamide] has an IC50 (MCF7) of 38 µM, an IC50 (DU145) of 3 µM and an IC50 (MDA-MB231 [1]) of 61 µM. For the same molecule, the IC50 (H1975) was 8 µM, the “Upregulation of mature let-7 miRNAs” value (mature let-7 miRNAs) was “upregulated mature let-7 miRNAs at significantly lower doses than LN1632” and the IC50 (H1568) was 12 µM. For the same molecule, the IC50 (MDA-MB231 [2]) was 17 µM, the IC50 (SW948) was 51 µM and the IC50 (22RV1 [3]) was 2 µM. The IC50 (22RV1 [4]) was 8 µM, the “Apoptosis and cell numbers” value (22Rv1 cells) was “induces apoptosis and reduces cell numbers of mCRPC compared to Enzalutamide” and the “Inhibition of LIN28B binding to pre-let-7a (FRET signal)” value [5] was “inhibit LIN28's RNA-binding capacity significantly more than compound LN1632”. For the same molecule, the IC50 (HCT-116) was 215 µM, the IC50 (H460) was 124 µM and the IC50 (H23) was 94 µM. The IC50 (BT-549) was 7 µM, the IC50 (SW620 [6]) was 27 µM and the IC50 (LNCaP) was 6 µM. It also gave an IC50 (A549) of 20 µM.

With `CC(=O)Nc1cccc(-c2ccc3[nH]cc(-c4ccccc4)c3n2)c1` [JGJ034, N-(3-(3-Phenyl-1H-pyrrolo[3,2-b]pyridin-5-yl)phenyl)acetamide] the IC50 (SW480 [7]) was 33 µM, the “Upregulation of mature let-7 miRNAs” value (mature let-7 miRNAs) was “upregulated mature let-7 miRNAs at significantly lower doses than LN1632” and the “Proliferation and apoptosis of cancer cells” value (MYC-driven cancers) was “reduced proliferation and induced apoptosis preferentially in MYC-driven cancers”. The IC50 (MDA-MB231 [2]) was 3 µM, the IC50 (SW948) was 85 µM and the IC50 (22RV1 [3]) was 1 µM. For the same molecule, the IC50 (22RV1 [4]) was 2 µM, the IC50 (SW480 [8]) was 41 µM and the “Inhibition of LIN28B binding to pre-let-7a (FRET signal)” value [5] was “inhibit LIN28's RNA-binding capacity significantly more than compound LN1632”. It also gave an IC50 (HCT-116) of 43 µM, an IC50 (SW620 [6]) of 3 µM and an IC50 (LNCaP) of 3 µM. The IC50 (SW620 [9]) was 2 µM.
